Data from patent publication US9169209B2, “Compounds and compositions for the inhibition of NAMPT” (FORMA TM, LLC, priority 2011, dated 2015).

Tests used:
[1] = biological target: NAMPT (Homo sapiens (Human), UniProt P43490); assay: Biochemical Inhibition Assay (NAMPT enzymatic reaction, NMN quantified by mass spectrometry); settings: recombinant His-tagged NAMPT, 33 nM; 1 μM NAM; read-out: Biochem IC50
Method: Recombinant His-tagged NAMPT was produced in E. coli cells, purified over a Ni column, and further purified over a size-exclusion column by XTAL Biostructures.
The NAMPT enzymatic reactions were carried out in Buffer A (50 mM Hepes pH 7.5, 50 mM NaCl, 5 mM MgCl2, and 1 mM THP) in 96-well V-bottom plates. The compound titrations were performed in a separate dilution plate by serially diluting the compounds in DMSO to make a 100× stock. […] The compound and enzyme mix was incubated for 15 minutes at room temperature, then 10 μL of 10× substrate and co-factors in Buffer A were added to the test well to make a final concentration of 1 μM NAM, 100 μM 5-Phospho-D-ribose 1-diphosphate (PRPP), and 2.5 mM Adenosine 5′-triphosphate (ATP). The reaction was allowed to proceed for 30 minutes at room temperature, then was quenched with the addition of 11 μL of a solution of formic acid and L-Cystathionine to make a final concentration of 1% formic acid and 10 μM L-Cystathionine. Background and signal strength was determined by addition (or non-addition) of a serial dilution of NMN to a pre-quenched enzyme and cofactor mix.
A mass spectrometry-based assay was used to measure the NAMPT reaction product (NMN) and the internal control (L-Cystathionine). NMN and L-Cystathionine were detected using the services of Biocius Lifesciences with the RapidFire system. In short, the NMN and L-Cystathionine are bound to a graphitic carbon cartridge in 0.1% formic acid, eluted in 30% acetonitrile buffer, and injected into a Sciex 4000 mass spectrometer. The components of the sample were ionized with electrospray ionization and the positive ions were detected. […] The fragments are quantified and the analyzed by the following method.
First the NMN signal is normalized to the L-Cystathionine signal by dividing the NMN signal by the L-Cystathionine signal for each well. The signal from the background wells are averaged and subtracted from the test plates.
Wherein x denotes the average signal of the compound treated wells and y denotes the average signal of the DMSO treated wells.
IC50s are Determined Using Excel and this Formula.
Wherein X denotes the compound concentration 1, Y denotes the compound concentration 2, XX denotes the % inhibition at compound concentration 1 (X), and YY denotes the % inhibition at compound concentration 2 (Y).

[2] = system: A2780 cells; assay: In-Vitro Cell Proliferation Assay (SRB, 72 hours); assay type: cell-based; settings: Homo sapiens, A2780, 72 h, A2780 cells, 72 hours, sulforhodamine B; read-out: A2780 IC50
Method: After overnight incubation at 37° C. and 5% CO2, the compound titrations were performed in a separate dilution plate by serially diluting the compounds in DMSO to make a 1000× stock. The compounds were then further diluted to 10× final concentration in culture media, whereupon 20 μL of each dilution was added to the plated cells with controls (e.g. DMSO and blank) to make a final volume of 200 μL. The final DMSO concentration in each well was 0.1%. The plates were then incubated for 72 hours at 37° C. in a 5% CO2 incubator. The number of viable cells was then assessed using sulforhodamine B (SRB) assay. Cells were fixed at 4° C. for 1 hour with the addition of 50 μL 30% trichloroacetic acid (TCA) to make a final concentration of 6% TCA. The plates were washed four times with H2O and allowed to dry for at least 1 hour, whereupon 100 μL of a 4% SRB in 1% acetic acid solution was added to each well and incubated at room temperature for at least 30 minutes. The plates were then washed three times with 1% acetic acid, dried, and treated with 100 μL of 10 mM Tris-Base solution. The plates were then read in a microplate reader at an absorbance of 570 nm. Background was generated on a separate plate with media only.
First, the signals from the background plate are averaged and then the background was subtracted from the test plates.
wherein x denotes the average signal of the compound-treated cells and y denotes the average signal of the DMSO-treated cells.
wherein X denotes the compound concentration 1, Y denotes the compound concentration 2, XX denotes the % inhibition at compound concentration 1 (X), and YY denotes the % inhibition at compound concentration 2 (Y).

Sequence of NAMPT (P43490 whole entry): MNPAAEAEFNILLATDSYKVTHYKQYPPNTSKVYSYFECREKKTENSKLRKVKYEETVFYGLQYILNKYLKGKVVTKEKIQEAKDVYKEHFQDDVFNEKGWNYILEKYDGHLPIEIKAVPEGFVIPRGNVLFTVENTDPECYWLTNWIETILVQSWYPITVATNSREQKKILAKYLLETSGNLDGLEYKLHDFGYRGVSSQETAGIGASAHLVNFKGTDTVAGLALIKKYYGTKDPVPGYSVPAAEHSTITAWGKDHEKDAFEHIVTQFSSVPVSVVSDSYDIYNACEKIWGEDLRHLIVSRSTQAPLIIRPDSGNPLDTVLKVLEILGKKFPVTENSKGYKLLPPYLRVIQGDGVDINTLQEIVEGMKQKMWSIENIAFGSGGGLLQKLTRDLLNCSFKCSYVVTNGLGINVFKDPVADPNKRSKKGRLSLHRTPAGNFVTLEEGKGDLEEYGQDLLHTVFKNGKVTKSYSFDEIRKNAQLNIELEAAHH

Row | SMILES | IC50 [1] [nM] | IC50 [2] [nM]
1 | CCN(CC)C(=O)c1cc(Cl)cc(S(=O)(=O)c2ccc(NC(=O)/C=C/c3cccnc3)cc2)c1 [3-chloro-N,N-diethyl-5-({4-[(2E)-3-(pyridin-3-yl)prop-2-enamido]benzene}sulfonyl)benzamide] | 19.4 | 27.4
2 | O=C(/C=C/c1cccnc1)Nc1ccc(S(=O)(=O)c2ccccc2OC(F)(F)F)cc1 [(2E)-3-(pyridin-3-yl)-N-(4-{[2-(trifluoromethoxy)benzene]sulfonyl}phenyl)prop-2-enamide] | 3.6 | 15.7
3 | O=C(/C=C/c1cccnc1)Nc1ccc(S(=O)(=O)Nc2ccccc2OC(F)(F)F)cc1 [(2E)-3-(pyridin-3-yl)-N-(4-{[2-(trifluoromethoxy)phenyl]sulfamoyl}phenyl)prop-2-enamide] | 375 | 1270
4 | O=C(/C=C/c1cccnc1)Nc1ccc(S(=O)(=O)c2cccc(OC(F)(F)F)c2)cc1 [(2E)-3-(pyridin-3-yl)-N-(4-{[3-(trifluoromethoxy)benzene]sulfonyl}phenyl)prop-2-enamide] | 61.5 | 47.7
5 | O=C(/C=C/c1cccnc1)Nc1ccc(S(=O)(=O)c2cccc(C(F)(F)F)c2)cc1 [(2E)-3-(pyridin-3-yl)-N-(4-{[3-(trifluoromethyl)benzene]sulfonyl}phenyl)prop-2-enamide] | 31.9 | 107
6 | O=C(/C=C/c1cccnc1)Nc1ccc(S(=O)(=O)c2ccc(OC(F)(F)F)cc2)cc1 [(2E)-3-(pyridin-3-yl)-N-(4-{[4-(trifluoromethoxy)benzene]sulfonyl}phenyl)prop-2-enamide] | 167 | 100 to 1000
7 | O=C(/C=C/c1cccnc1)Nc1ccc(S(=O)(=O)c2ccc(C(F)(F)F)cc2)cc1 [(2E)-3-(pyridin-3-yl)-N-(4-{[4-(trifluoromethyl)benzene]sulfonyl}phenyl)prop-2-enamide] | 56.5 | 100 to 1000
8 | O=C(/C=C/c1cccnc1)Nc1ccc(S(=O)(=O)c2cccnc2)cc1 [(2E)-3-(pyridin-3-yl)-N-[4-(pyridine-3-sulfonyl)phenyl]prop-2-enamide] | 18.3 | 100 to 1000
9 | O=C(/C=C/c1cccnc1)Nc1ccc(S(=O)(=O)c2cnc3ccccc3c2)cc1 [(2E)-3-(pyridin-3-yl)-N-[4-(quinoline-3-sulfonyl)phenyl]prop-2-enamide] | 3.7 | 100
10 | O=C(/C=C/c1cccnc1)Nc1ccc(S(=O)(=O)c2ccc3ncccc3c2)cc1 [(2E)-3-(pyridin-3-yl)-N-[4-(quinoline-6-sulfonyl)phenyl]prop-2-enamide] | 5.4 | 76.2
11 | O=C(/C=C/c1cccnc1)Nc1ccc(S(=O)(=O)c2cccc3cccnc23)cc1 [(2E)-3-(pyridin-3-yl)-N-[4-(quinoline-8-sulfonyl)phenyl]prop-2-enamide] | 3.6 | 12.2
12 | O=C(/C=C/c1cccnc1)Nc1ccc(S(=O)(=O)c2cncc(N3CCCC3)c2)cc1 [(2E)-3-(pyridin-3-yl)-N-{4-[5-(pyrrolidin-1-yl)pyridine-3-sulfonyl]phenyl}prop-2-enamide] | 1.4 | 51.1
13 | NS(=O)(=O)c1cccc(S(=O)(=O)c2ccc(NC(=O)/C=C/c3cccnc3)cc2)c1 [(2E)-3-(pyridin-3-yl)-N-{4-[(3-sulfamoylbenzene)sulfonyl]phenyl}prop-2-enamide] | 9.9 | 100 to 1000
14 | O=C(/C=C/c1cccnc1)Nc1ccc(S(=O)(=O)c2cccc3c2oc2ccccc23)cc1 [(2E)-N-(4-{8-oxatricyclo[7.4.0.0^2,^7]trideca-1(13),2,4,6,9,11-hexaene-6-sulfonyl}phenyl)-3-(pyridin-3-yl)prop-2-enamide] | 3.5 | 7.3
15 | O=C(/C=C/c1cccnc1)Nc1ccc(S(=O)(=O)c2cc(OC(F)(F)F)ccc2Cl)cc1 [(2E)-N-(4-{[2-chloro-5-(trifluoromethoxy)benzene]sulfonyl}phenyl)-3-(pyridin-3-yl)prop-2-enamide] | 21 | 100 to 1000
16 | COc1cc(C(F)(F)F)ccc1S(=O)(=O)c1ccc(NC(=O)/C=C/c2cccnc2)cc1 [(2E)-N-(4-{[2-methoxy-4-(trifluoromethyl)benzene]sulfonyl}phenyl)-3-(pyridin-3-yl)prop-2-enamide] | 59.6 | 118
17 | COc1ccc(C(C)C)cc1S(=O)(=O)c1ccc(NC(=O)/C=C/c2cccnc2)cc1 [(2E)-N-(4-{[2-methoxy-5-(propan-2-yl)benzene]sulfonyl}phenyl)-3-(pyridin-3-yl)prop-2-enamide] | 2.6 | 16.7
18 | COc1ccc(OC(F)(F)F)cc1S(=O)(=O)c1ccc(NC(=O)/C=C/c2cccnc2)cc1 [(2E)-N-(4-{[2-methoxy-5-(trifluoromethoxy)benzene]sulfonyl}phenyl)-3-(pyridin-3-yl)prop-2-enamide] | 16.8 | 29.3
19 | COc1ccc(C(F)(F)F)cc1S(=O)(=O)c1ccc(NC(=O)/C=C/c2cccnc2)cc1 [(2E)-N-(4-{[2-methoxy-5-(trifluoromethyl)benzene]sulfonyl}phenyl)-3-(pyridin-3-yl)prop-2-enamide] | 24.2 | 19
20 | Cc1cc(C(F)(F)F)ccc1S(=O)(=O)c1ccc(NC(=O)/C=C/c2cccnc2)cc1 [(2E)-N-(4-{[2-methyl-4-(trifluoromethyl)benzene]sulfonyl}phenyl)-3-(pyridin-3-yl)prop-2-enamide] | 62.8 | 100 to 1000
21 | O=C(/C=C/c1cccnc1)Nc1ccc(S(=O)(=O)c2cccc(-n3cccn3)c2)cc1 [(2E)-N-(4-{[3-(1H-pyrazol-1-yl)benzene]sulfonyl}phenyl)-3-(pyridin-3-yl)prop-2-enamide] | 4.8 | 88
22 | CC(C)COc1cccc(S(=O)(=O)c2ccc(NC(=O)/C=C/c3cccnc3)cc2)c1 [(2E)-N-(4-{[3-(2-methylpropoxy)benzene]sulfonyl}phenyl)-3-(pyridin-3-yl)prop-2-enamide] | 56.7 | 100 to 1000
23 | Cc1cc(C)n(-c2cccc(S(=O)(=O)c3ccc(NC(=O)/C=C/c4cccnc4)cc3)c2)n1 [(2E)-N-(4-{[3-(3,5-dimethyl-1H-pyrazol-1-yl)benzene]sulfonyl}phenyl)-3-(pyridin-3-yl)prop-2-enamide] | 9.1 | 31.9
24 | CCS(=O)(=O)c1cccc(S(=O)(=O)c2ccc(NC(=O)/C=C/c3cccnc3)cc2)c1 [(2E)-N-(4-{[3-(ethanesulfonyl)benzene]sulfonyl}phenyl)-3-(pyridin-3-yl)prop-2-enamide] | 17.3 | 70.4
25 | Cn1ncc2ccc(S(=O)(=O)c3ccc(NC(=O)/C=C/c4cccnc4)cc3)cc21 [(2E)-N-[4-(1-methyl-1H-indazole-6-sulfonyl)phenyl]-3-(pyridin-3-yl)prop-2-enamide] | – | 53
26 | COc1ccc2cc(S(=O)(=O)c3ccc(NC(=O)/C=C/c4cccnc4)cc3)ccc2c1 [(2E)-N-[4-(6-methoxynaphthalene-2-sulfonyl)phenyl]-3-(pyridin-3-yl)prop-2-enamide] | – | 100 to 1000
27 | Cc1ccc(S(=O)(=O)c2ccc(NC(=O)/C=C/c3cccnc3)cc2)cn1 [(2E)-N-[4-(6-methylpyridine-3-sulfonyl)phenyl]-3-(pyridin-3-yl)prop-2-enamide] | – | 100 to 1000
28 | Cc1cccc(S(=O)(=O)c2ccc(NC(=O)/C=C/c3cccnc3)cc2)c1 [(2E)-N-{4-[(3-methylbenzene)sulfonyl]phenyl}-3-(pyridin-3-yl)prop-2-enamide] | – | 93.3
